These results are taken from PMC7002685, “Inhibition of vascular calcification by inositol phosphates derivatized with ethylene glycol oligomers” (Nature Communications, 2020).

By IC50 is commonly meant the concentration that inhibits the measured activity by half.

“And” between values parts separate entries of the source, which are not always exact repeats. Identical values can stand only once.

Data set [1] relates to transformation of CPP1 to CPP2 in pooled human serum. Description: In vitro serum calcification propensity (T50) screening assay. Format: biochemical. The arrangement: key to T50: T50 in minutes (time to 50% CPP phase transition). The following applies: for activity/unit mass: mean c350 x mw (Na salt); for concentration upon which a T50 of 350 min is reached (c350), mean: mean of n experiments; for concentration upon which a T50 of 350 min is reached (c350), single experiment: one value per experiment (lab journal reference E05-E40). How it is done:
The compounds were ranked for calcification inhibition activity using a nanoparticle-based test, developed for risk stratification, which measures the propensity for calcification in patient serum. […] The time, after which 50% of CPP phase transition occurred (T50), was assessed by time-resolved spectrophotometry at 550 nm (Supplementary Fig. 1a).
The screening assay was performed as described previously. In brief, pooled human serum (H4522, Sigma-Aldrich) stored at −20 °C was thawed at 37 °C, centrifuged (10,000 × g, and 4 °C, 30 min) (5427R, Eppendorf, Switzerland), and sterile filtered (0.22 μm filter, Millipore, Merck KGaA) to remove potential cryoprecipitates (cleared human serum). The calcium solution was 40 mM CaCl2 (102382, Merck KGaA) in HBS, pH 7.4 (RT) (100 mM HEPES (H3375, Sigma-Aldrich) and 140 mM NaCl (1734712, Fisher Scientific, Hampton, NH, USA)). […] All salt solutions and buffers were double sterile filtered (0.22 µm) and pre-warmed to 37 °C prior to use. […] The plate was sealed with an adhesive film and the absorption at 550 nm was measured every 3 min with 1 min in-between shaking for a total of 300 cycles at 37 °C using the infinite M200 microplate reader (Tecan, Männedorf, Switzerland). An A550 vs. time graph was generated and T50 (min) (time at half-maximum transition from CPP1 to CPP2) values were derived by sigmoidal curve fit using Prism 8 (nonlinear regression in the log(agonist) vs. response–variable slope (four parameter mode) using the robust fit fitting method, GraphPad Software, San Diego, CA, USA). Activities between compounds were compared by generating a T50 (min) vs. concentration (µM) graph, calculating nonlinear regression and deriving the concentration required to delay T50 to 350 min (c350) using a standard equation for the dose–response curve, Eq. (1), whereby x = [compound], y = time (min), bottom = baseline response, top = maximum response, T50 = [drug] that leads to half-maximum response, and the hill slope is a factor that describes the steepness of the curve.1 y= bottom+top - bottom/1+T50/x^hillslope.

Another data set concerns the target CPP2. The experiment in a line: Competitive 18F-NaF binding assay on CPPs. The arrangement: species or system human. Here is the method: A ^18F-NaF-based competitive binding assay was developed to indirectly assess the inhibitor affinity (IC50) to CPPs. The uptake mechanism of ^18F-NaF, a marker of micro-calcification activity by chemisorption onto hydroxyapatite crystals, is contingent on the rapid exchange of hydroxyl (OH^−) groups present on the hydroxyapatite surface (Ca5(PO4)3(OH)) by ^18F^− to form fluoroapatite (Ca5(PO4)3^18F)[34],[54].
Triplicate aliquots of CPP2s (20 µg Ca/mL) in 100 μL assay buffer (100 mM HBS, pH 7.4 (RT)) were incubated for 1 h at RT in the presence of increasing concentrations of compounds in 50 μL Milli-Q water and ^18F-NaF (1 nM) in 50 μL assay buffer, resulting in a total incubation volume of 200 μL (^18F-NaF was prepared using a FASTlab synthesizer (GE Healthcare, Little Chalfont, UK) and commercially available ^18F-NaF cassettes (GE Healthcare)). Maximum radiotracer binding was determined by incubating CPP2s with ^18F-NaF (1 nM) only. The reaction was terminated by rapid filtration through a SOLAμ™ SPE plate (HRP 2 mg/mL 96-well plate, 22 μm; Thermo Fisher Scientific). SPE individual column matrices were washed twice rapidly in assay buffer and radioactivity on the filters determined by an automatic gamma counter (Wizard2 Gamma Counter, Perkin Elmer, Waltham, MA, USA). […] IC50 is the concentration of […] that gives a response half way between the bottom and top parts of the curve. ^18F-NaF micro-PET/computed tomography (micro-PET/CT) was employed for ex vivo analysis of (OEG2)2-IP4’s engagement to target calcified human tissue explants, as described previously. […] Following incubations, samples were washed twice in 0.1 M PBS (1 min per wash) and mounted on a Petri dish for micro-PET/CT imaging (nanoPET/CT, Mediso, Budapest, Hungary). In total, seven samples from the femoral arteries of three patients with ischemic peripheral disease and three samples from native aortic valves of three patients undergoing valve replacement surgery were used. All samples were collected at the time of surgery and stored in 4% paraformaldehyde at RT until further use. All patients gave their written, informed consent. All procedures had local ethical approval (06/S0703/110, 12/WS/0227, 09/S0703/118, and 12/NW/0036). All studies were approved by East and West Scotland Research Ethics Committees, and all experiments were conducted according to the principles expressed in the Declaration of Helsinki.

The nature of data set [2]: Serum calcification propensity assay after 4.5 h incubation in enzymatically active human serum. To be noted: compound at c350 concentration, 37 °C; individual donors, Fig. 2e.
[3] abbreviates: concentration 0.3 μM, one value per experiment.
The mark [4] stands for this setting: concentration 1 μM, one value per experiment.
Setting [5] is: concentration 3 μM, one value per experiment.
Where [6] appears, read: concentration 10 μM, one value per experiment.
[7] abbreviates: concentration 30 μM, one value per experiment.

Regarding `NCCCC(O)(P(=O)(O)O)P(=O)(O)O` [Alendronate, alendronate], the T50 in data set [1] (setting [3]) is 213.8 and 221.6 and 208.733 and 230.4 and 221.333 and 196.833; in data set [1] (setting [4]), 222.967 and 230.933 and 225.333 and 238.6 and 229.833 and 230.667; in data set [1] (setting [5]) it was 261.733 and 253 and 230.467 and 264.833 and 255.1 and 255.367; in data set [1] (setting [6]), 345.567 and 345.233 and 327.433 and 380.1 and 360.1 and 348.633; in data set [1] (setting [7]), 770.3 and 707.4. Moreover, the activity/unit mass in data set [1] came out at 2.69 mg/L. The “concentration upon which a T50 of 350 min is reached (c350), mean” value (from here on “concentration upon which a T50 … mean”) in data set [1] came out at 9.9 µM. Besides, the “concentration upon which a T50 of 350 min is reached (c350), single experiment” value in data set [1] is 9.9 µM and 10.3 µM and 8.3 µM and 9.4 µM and 10.2 µM. Also, the IC50 at CPP2 (CPP2 20 µg Ca/mL, 18F-NaF 1 nM, 1 h RT, read-out: IC50 (reduction of 18F binding to CPP)) was 900 nM. Further, the “18F-NaF percentage binding to CPP2” value in the data set on CPP2 (concentration 0.75 (unit not given)) is 116.838% and 100.543% and 117.872%; in the data set with CPP2 (concentration 2.5 (unit not given)) it was 108.056% and 108.706% and 117.126%; with CPP2 (concentration 7.5 (unit not given)), 96.3113% and 120.411% and 97.661%; with CPP2 (concentration 25 (unit not given)) it was 95.6416% and 106.619%; in the data set on CPP2 (concentration 75 (unit not given)) it was 102.247% and 106.699% and 103.897%; with CPP2 (concentration 250 (unit not given)), 99.9294% and 104.809% and 85.4465%. The “18F-NaF percentage binding to CPP2” value with CPP2 (concentration 1750 (unit not given)) was 35.8884% and 43.4211% and 42.6767%; in the data set on CPP2 (concentration 2500 (unit not given)), 62.647% and 51.2379% and 44.8192%; in the data set with CPP2 (concentration 7500 (unit not given)) it was 62.7542% and 48.4658% and 45.2944%; in the data set with CPP2 (concentration 25000 (unit not given)), 44.4078% and 32.6852% and 32.8795%; in the data set with CPP2 (concentration 75000 (unit not given)), 35.0722% and 24.2405% and 29.2905%; in the data set with CPP2 (concentration 250000 (unit not given)), 26.7145% and 19.4967% and 18.0105%. In the data set with CPP2 (concentration 750000 (unit not given), replicates Fig. 2c), the “18F-NaF percentage binding to CPP2” value is 36.7136% and 30.5284% and 26.7151%.

Take `COCCOCCOCCOCCOCCOCCOCCOCCOCCOCCOCCO[C@@H]1[C@@H](OP(=O)(O)O)[C@H](OCCOCCOCCOCCOCCOCCOCCOCCOCCOCCOCCOC)[C@@H](OP(=O)(O)O)[C@@H](OP(=O)(O)O)[C@H]1OP(=O)(O)O` [(OEG11)2-IP4, 4,6-Di-O-(methoxy-undecaethyleneglycol)-myo-inositol-1,2,3,5-tetrakis(phosphate)]: the T50 in data set [1] (setting [3]) is 225.5 and 216.3 and 217.233; in data set [1] (setting [4]), 254.967 and 243.067 and 240.833; in data set [1] (setting [5]), 330.833 and 306.033 and 295.1; in data set [1] (concentration 5 μM, one value per experiment), 429.233 and 399.933 and 420.733. In addition, the “fold greater molar activity in delaying serum calcification propensity than IP6” value in data set [1] (from c350) is roughly 10 fold. Also, the activity/unit mass in data set [1] turned out to be 6.28 mg/L. Also, in data set [1], the “concentration upon which a T50 … mean” value worked out at 3.8 µM. The “concentration upon which a T50 of 350 min is reached (c350), single experiment” value in data set [1] was 3.4 µM and 3.9 µM. For the same compound, the “ΔT50 after 4.5 h vs 0 h incubation in enzymatically active human serum” value in data set [2] is -7 min and 2 min and 28 min and -24 min.

In the case of `O[C@H]1[C@H](O)[C@@H](O)[C@H](O)[C@@H](O)[C@H]1O` [myo-Inositol, myo-inositol], the T50 in data set [1] (1 µM, individual experiments, Fig. 2a) is 207.8 min and 255.6 min and 248.233 min and 290.55 min; in data set [1] (3 µM, individual experiments, Fig. 2a), 211.367 min and 251.867 min and 315.75 min; in data set [1] (10 µM, individual experiments, Fig. 2a), 222.4 min and 274.533 min and 249.233 min and 297.6 min; in data set [1] (30 µM, individual experiments, Fig. 2a) it was 215.55 min and 286.233 min and 247.167 min and 309.65 min; in data set [1] (50 µM, individual experiments, Fig. 2a), 213.1 min and 307.8 min; in data set [1] (100 µM, individual experiments, Fig. 2a), 291.467 min and 250.833 min. Moreover, the T50 was 207.8 and 255.6 and 248.233 and 290.55 in data set [1] (setting [4]); 211.367 and 251.867 and 315.75 in data set [1] (setting [5]); 222.4 and 274.533 and 249.233 and 297.6 in data set [1] (setting [6]); 215.55 and 286.233 and 247.167 and 309.65 in data set [1] (setting [7]); 213.1 and 307.8 in data set [1] (concentration 50 μM, one value per experiment); 291.467 and 250.833 in data set [1] (concentration 100 μM, one value per experiment). Besides, the activity/unit mass in data set [1] amounted to 18.02 mg/L. In addition, the “concentration upon which a T50 … mean” value in data set [1] was greater than 100 µM. Besides, the “Concentration at T50 = 350 min mean ± s.d. (n) (c350)” value in data set [1] (pooled human serum, 10 mM calcium, 6 mM phosphate, 37 °C) is >100 (4) µM and >18.0 (4) mg/L.
